These results are taken from US20220048900A1, “AMORPHOUS SPARSENTAN COMPOSITIONS” (Travere Therapuetics, Inc., priority 2018, published 2022).

The nature of series [1]: Pharmacokinetics of crystalline and amorphous sparsentan formulations, single IV or PO dose (Example 4). To be noted: for % F (dose-normalized AUC0-24 hr PO/IV): vs IV crystalline sparsentan 1 mg/kg. The format is in vivo, male Sprague Dawley rats. The procedure:
Sparsentan was administered intravenously as a bolus injection (“IV”) or orally (“PO”) to male Sprague Dawley rats in a single dose, as described in Table 11. Four sparsentan formulations were tested: crystalline sparsentan (“Crystalline Sp”); spray dried dispersion particles formed from a 50:50 mixture of sparsentan and polyvinylpyrrolidone-vinyl acetate copolymer (“50:50 Sp:PVP-VA SDD”); spray dried dispersion particles formed from a 50:50 mixture of sparsentan and hydroxypropyl methylcellulose (“50:50 Sp:HPMC E3LV SDD”); and spray dried dispersion particles formed from a 50:50 mixture of sparsentan and hypromellose acetate succinate HG (“50:50 Sp: HPMCAS-H SDD”). Formulations were administered in a vehicle comprised of either a mixture of PEG400:ethanol:sterile water (30:30:40 v/v/v) (“A”) or a mixture of 0.5% Methocel A4M, 0.1% Tween-80 in purified water (“B”).
Blood samples were collected at 0.083 (Group 1 only), 0.25, 0.5, 1, 2, 4, 6, 8, and 24 hours post dose. Blood was collected into tubes containing K2EDTA and centrifuged, and resulting plasma samples were obtained. For each group, the following PK parameters were determined: maximum observed plasma concentration (Cmax), time of maximum observed plasma concentration (Tmax), and area under the plasma concentration-time curve (AUC). AUC from time 0 to 24 hours (AUC0-24 hr) was calculated for all groups with at least three consecutive quantifiable concentrations. For the IV dose, extrapolated null concentration (C0) was calculated and used as Cmax at time zero. For the oral doses, extrapolated value at time zero was assigned as 0.0 ng/m L. The AUC based on actual collection time point was from 0.083 to 24 hours for IV group and from 0.25 to 24 hour for PO group. Absolute bioavailability evaluation was determined as “% F” between single dose IV and oral dose, calculated as follows:
% F=Mean Dose Normalized AUC0-24 hr(PO)/Mean Dose Normalized AUC0-24 hr (IV).

Series [2] in a line: Pharmacokinetics of modified release sparsentan formulations, PO (Example 5). The class given is in vivo, male Sprague Dawley rats. The settings on record: male rats. The procedure: Sparsentan was administered orally (“PO”) to male Sprague Dawley rats in a single or twice-a-day dose, as described in Table 14. Formulations were administered in a vehicle comprised of a mixture of 0.5% methylcellulose 4000 cps and 0.25% Tween 80 in distilled water. All animals were fasted overnight through approximately 4 hours post-dose. Animals receiving Formulation #2 were not fasted for the second dose administration.
Blood (approximately 0.3 mL) was collected from a jugular vein from each animal via syringe and needle and transferred into tubes containing K2EDTA at approximately 0.5, 1, 2, 4, 8 (prior to second dose for Group 2), 10, 12, and 24 hours post-dose. Another vein may be used as an alternative blood collection site. For each group, the following PK parameters were determined: maximum observed plasma concentration (Cmax), time of maximum observed plasma concentration (Tmax), and area under the plasma concentration-time curve (AUC). AUC from time 0 to 24 hours (AUC0-24 hr) was calculated for all groups with at least three consecutive quantifiable concentrations.

Series [3] in a line: MDSC of sparsentan and spray dried sparsentan dispersions. The format is physicochemical. The procedure:
MDSC was performed using a TA Instruments Q200 differential scanning calorimeter equipped with a TA instruments Refrigerated Cooling System 90. MDSC was used to measure glass transition temperature (Tg), cold crystallization (Tc), defined as a crystallization event at a temperature lower than the melt temperature, and melting temperature (Tm). Samples were placed in non-hermetic aluminum pans and heated at a constant rate of 2.0° C./min over a 25-200° C. temperature range. The system was purged by nitrogen flow at 50 mL/min to ensure inert atmosphere through the course of measurement.
Thermal properties, melting temperature (Tm), glass transition temperature (Tg), and crystallization temperature (Tc) of sparsentan was measured by MDSC. The Tg was measured via a melt-quench technique, heating past its melting temperature and rapidly cooling to trap the molten material in an amorphous state. The resulting sample was analyzed by MDSC and a Tg of 42° C. was determined (FIG. 4).

Broadly, the Cmax is the highest concentration seen after dosing. Broadly, the Tmax is the time from dosing to the highest level. On to `CCCCC1=NC2(CCCC2)C(=O)N1Cc1ccc(-c2ccccc2S(=O)(=O)Nc2noc(C)c2C)c(COCC)c1` [crystalline sparsentan, 2-[4-[(2-butyl-4-oxo-1,3-diazaspiro[4.4]non-1-en-3-yl)methyl]-2-(ethoxymethyl)phenyl]-N-(4,5-dimethyl-1,2-oxazol-3-yl)benzenesulfonamide], for which the “% F (dose-normalized AUC0-24 hr PO/IV)” value in series [1] (Group 2: PO 20 mg/kg) was determined as 50.1%; in series [1] (Group 3: PO 60 mg/kg), 55.2%. Moreover, the “Cmax increase with increasing dose (dose proportionality)” value in series [1] (oral doses 20 and 60 mg/kg, male rats) is listed as “approximately dose proportional”. In series [2] (Sprague Dawley, rat, 60 mg/kg/day, plasma, dose mg/kg/day #1 60, #2 60 (30 x 2, from first dose), #3 38, #4 28.8, #5 30, #6 28.6), this compound displayed a Cmax of 54.6 µg/mL. The AUC in series [2] (Sprague Dawley, rat, 60 mg/kg/day, plasma, dose mg/kg/day #1 60, #2 60 (total dose), #3 38, #4 28.8, #5 30, #6 28.6, read-out: AUC0.5-24 hr) came to 311 µg·h/mL. Also, the Tmax in series [2] (Sprague Dawley, rat, plasma, 60 mg/kg/day, median, dose mg/kg/day #1 60, #2 60 (30 x 2, from first dose), #3 38, #4 28.8, #5 30, #6 28.6) came out at 4 h. Further, the “Cmax/Dose” value in series [2] (dose-normalized, #2 from first dose) is 909 kg·ng/mL/mg. The “AUC0.5-24 hr/Dose” value in series [2] (dose-normalized, #2 from the total dose) came out at 5189 kg·ng·h/mL/mg.

Consider `CCCCC1=NC2(CCCC2)C(=O)N1Cc1ccc(-c2ccccc2S(=O)(=O)Nc2noc(C)c2C)c(COCC)c1` [Sparsentan, 2-[4-[(2-butyl-4-oxo-1,3-diazaspiro[4.4]non-1-en-3-yl)methyl]-2-(ethoxymethyl)phenyl]-N-(4,5-dimethyl-1,2-oxazol-3-yl)benzenesulfonamide], for which the Tg in series [3] (melt-quench technique) is 42 °C. Also, the physical stability entry in series [3] (modulated ramp up to 200° C.) is “stable as a neat amorphous form”.
